Experimental data from the supplement of paper PMC11061612.

Test system: U-698-M
Conditions: B-Cell Non-Hodgkin's Lymphoma
Outline: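 Plates with 1536 wells received cancer cell lines in 7.5 μl of DMEM/F12 or RPMI containing 10% FBS. After 24 hours at 37°C and 5% CO2, cells were dosed for 72 hours with final DMSO typically 0.2%, and viability was read by CellTiter-Glo 2.0 luminescence scaled between blank-well and DMSO-well means. The single-agent IC50 was taken from a logistic fit of the dose responses made with a non-linear mixed effects model, that logistic curve having two parameters.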

Row | SMILES | IC50, cell viability 72 h (max 10 µM) | also measured
1 | C[C@@H](Nc1cc(F)cc(F)c1)c1cc(C(=O)N(C)C)cc2c(=O)cc(N3CCOCC3)oc12 [AZD8186] | > 10000 nM | –
2 | COc1cc(Nc2ncc3c(n2)-c2ccc(Cl)cc2C(c2c(F)cccc2OC)=NC3)ccc1C(=O)O [Alisertib] | 8030 nM | –
3 | N.N.O=C([O-])C1(C(=O)[O-])CCC1.[Pt+2] [Carboplatin] | > 10000 nM | –
4 | C[C@@H](Oc1cc(-c2cnn(C3CCNCC3)c2)cnc1N)c1c(Cl)ccc(F)c1Cl [Crizotinib] | 5060 nM | –
5 | Cc1nc(Nc2ncc(C(=O)Nc3c(C)cccc3Cl)s2)cc(N2CCN(CCO)CC2)n1 [Dasatinib] | – | IC50, cell viability 72 h (max 2 µM): > 2000 nM
6 | COc1cccc2c1C(=O)c1c(O)c3c(c(O)c1C2=O)C[C@@](O)(C(=O)CO)C[C@@H]3O[C@H]1C[C@H](N)[C@H](O)[C@H](C)O1 [Doxorubicin] | – | IC50, cell viability 72 h (max 1 µM): 495 nM
7 | COc1cc([C@@H]2c3cc4c(cc3[C@@H](O[C@@H]3O[C@@H]5CO[C@@H](C)O[C@H]5[C@H](O)[C@H]3O)[C@H]3COC(=O)[C@H]23)OCO4)cc(OC)c1O [Etoposide] | 4930 nM | –
8 | COc1cc2ncnc(Nc3ccc(F)c(Cl)c3)c2cc1OCCCN1CCOCC1 [Gefitinib] | > 10000 nM | –
9 | Nc1ccn([C@@H]2O[C@H](CO)[C@@H](O)C2(F)F)c(=O)n1 [Gemcitabine] | – | IC50, cell viability 72 h (max 0.3 µM): 130 nM
10 | CS(=O)(=O)CCNCc1ccc(-c2ccc3ncnc(Nc4ccc(OCc5cccc(F)c5)c(Cl)c4)c3c2)o1 [Lapatinib] | > 10000 nM | –
11 | NC1(c2ccc(-c3nc4ccn5c(=O)[nH]nc5c4cc3-c3ccccc3)cc2)CCC1 [MK-2206] | > 10000 nM | –
12 | O=C(c1cc(Cc2n[nH]c(=O)c3ccccc23)ccc1F)N1CCN(C(=O)C2CC2)CC1 [Olaparib] | > 10000 nM | –
13 | CC(=O)O[C@H]1C(=O)[C@@]2(C)[C@H]([C@H](OC(=O)c3ccccc3)[C@]3(O)C[C@H](OC(=O)[C@H](O)[C@@H](NC(=O)c4ccccc4)c4ccccc4)C(C)=C1C3(C)C)[C@]1(OC(C)=O)CO[C@@H]1C[C@@H]2O [Paclitaxel] | – | IC50, cell viability 72 h (max 3 µM): 5.9 nM
14 | CC(=O)c1c(C)c2cnc(Nc3ccc(N4CCNCC4)cn3)nc2n(C2CCCC2)c1=O [Palbociclib] | > 10000 nM | –
15 | COc1cccc(OCCCN)c1-c1cc(Nc2cnc(C#N)cn2)n[nH]1 [Prexasertib] | – | IC50, cell viability 72 h (max 1 µM): 11.1 nM
16 | COc1cc2c(cc1OCCCCCOc1cc3c(cc1OC)C(=O)N1C=C(C)C[C@H]1C=N3)N=C[C@@H]1CC(C)=CN1C2=O [SG3199] | – | IC50, cell viability 72 h (max 0.001 µM): > 1 nM
17 | CCc1c2c(nc3ccc(O)cc13)-c1cc3c(c(=O)n1C2)COC(=O)[C@]3(O)CC [SN-38] | – | IC50, cell viability 72 h (max 0.3 µM): 22 nM
18 | N#Cc1cnc(Nc2cc(NC[C@H]3CNCCO3)c(C(F)(F)F)cn2)cn1 [SRA737] | 2860 nM | –
19 | C[C@@H](c1ccc2nccn2c1)n1nnc2ncc(-c3cnn(C)c3)nc21 [Savolitinib] | – | IC50, cell viability 72 h (max 1 µM): > 1000 nM
20 | Cn1cnc2c(F)c(Nc3ccc(Br)cc3Cl)c(C(=O)NOCCO)cc21 [Selumetinib] | > 10000 nM | –
21 | Cc1nc(-c2cn3c(n2)-c2ccc(-c4cnn(C(C)(C)C(N)=O)c4)cc2OCC3)n(C(C)C)n1 [Taselisib] | 5680 nM | –
22 | CC(=O)Nc1cccc(-n2c(=O)n(C3CC3)c(=O)c3c(Nc4ccc(I)cc4F)n(C)c(=O)c(C)c32)c1 [Trametinib] | – | IC50, cell viability 72 h (max 1 µM): > 1000 nM
23 | CC1(C)CCC(CN2CCN(c3ccc(C(=O)NS(=O)(=O)c4ccc(NCC5CCOCC5)c([N+](=O)[O-])c4)c(Oc4cnc5[nH]ccc5c4)c3)CC2)=C(c2ccc(Cl)cc2)C1 [Venetoclax] | – | IC50, cell viability 72 h (max 1 µM): > 1000 nM
